Tests used:
[1] = Compatibility tests of components, 1 month; assay type: physicochemical; conditions: for degradation of letrozole caused by PTSA: 1 months
Method: The compatibility test was performed at room temperature (25° C.), 40° C. under 75% RH and 50° C., for 1 months with the various components tested in proportion to the intended composition.

[2] = pH dependence; cited from earlier work

SMILES: CC(=O)c1c(C)c2cnc(Nc3ccc(N4CCNCC4)cn3)nc2n(C2CCCC2)c1=O [palbociclib base, Palbociclib]
- degradation of palbociclib base by PTSA ([1]; 25° C., 40° C. and 50° C., one month): did not induce degradation
- solubility [2]: soluble only in a strongly acidic medium

SMILES: N#Cc1ccc(C(c2ccc(C#N)cc2)n2cncn2)cc1 [letrozole, Letrozole]
- degradation of letrozole caused by PTSA ([1]; 25° C.): 5%
- degradation of letrozole caused by PTSA ([1]; 40° C.): 12%
- degradation of letrozole caused by PTSA ([1]; 50° C.): 15%

Source: patent US11672804B1, “Pharmaceutical composition containing palbociclib and letrozole” (EGIS Gyógyszergyár Zrt., priority 2022, dated 2023)
